Measurements from patent US20150031655A1, “COMBINATION OF LIVER X RECEPTOR MODULATOR AND ESTROGEN RECEPTOR MODULATOR FOR THE TREATMENT OF AGE-RELATED DISEASES” (UNIVERSITY OF NORTH DAKOTA, priority 2011, published 2015).
Values belong to the compound of their own block, whether it stands above or below them.

Legend:
[1] = system: human neuroblastoma cells; conditions: cited from earlier work
[2] = system: α-synuclein; assay: Western blot of α-synuclein protein levels in SH-SY5Y cells; type: cell-based, human; conditions: for basal α-synuclein expression levels: treatment alone vs control
Protocol: (§1) Human neuroblastoma SH-SY5Y cells were grown in DMEM/F12 medium containing 10% fetal bovine serum (FBS) and 1% antibiotic/antimycotic mix. Cells were maintained at 37° C. in a saturated humidity atmosphere containing 95% air and 5% CO2.
(§2) Treated SH-SY5Y cells were washed with PBS and trypsinized to collect the cells and centrifuged at 5000 g. The pellet was washed again with PBS and homogenized in NE-PER tissue protein extraction reagent (Thermo Scientific, Rockford, Ill.) supplemented with protease and phosphatase inhibitors. Protein concentrations from the cytosolic and nuclear homogenates were determined with BCA protein assay.
(§3) Proteins (10 μg) were separated on SDS-PAGE gels, transferred to a polyvinylidene difluoride membrane (BioRad, Hercules, Calif.), and incubated with the following monoclonal antibodies: anti-TH mouse antibody (1:1000; Sigma Aldrich, Saint Louis, Mo.), anti-α-synuclein mouse antibody (1:500; Chemicon, Temecula, Calif.), anti-ERα rabbit antibody (1:500; Abcam, Cambridge, Mass.), anti-ERβ rabbit antibody (1:200; Upstate, Lake Placid, N.Y.), anti-LXRα rabbit antibody (1:500; Abcam, Cambridge, Mass.), anti-LXRβ mouse antibody (1:500; Abcam, Cambridge, Mass.).
(§4) β-actin and Lamin A were used as a gel loading control for cytosolic homogenates and nuclear homogenates respectively. The blots were developed with enhanced chemiluminescence (Immmun-star HRP chemiluminescent kit, Bio-Rad, Hercules, Calif.). Bands were visualized on a polyvinylidene difluoride membrane and analyzed by LabWorks 4.5 software on a UVP Bioimaging System (Upland, Calif.). Quantification of results was performed by densitometry and the results analyzed as total integrated densitometric values (arbitrary units).

[3] = system: experimental intracerebral hemorrhage; conditions: 10 μmol.Kg^−1.day^−1 i.p.; cited from earlier work
[4] = in vivo; cited from earlier work
[5] = target: T1, ERβ (Homo sapiens, UniProt Q92731); assay: Western blot of ERβ levels in the nucleus (nuclear translocation), SH-SY5Y cells; type: cell-based; conditions: 24 h
T1 construct: endogenous in cells; host or cells: SH-SY5Y human neuroblastoma cells
Protocol: as §1, §2, §3, §4

[6] = system: TH mRNA; assay: Real time RT-PCR of TH mRNA in SH-SY5Y cells; type: cell-based, human; conditions: 24 h
Protocol: as §1
Total RNA was isolated and extracted from treated cells using the 5 prime “PerfectPure RNA tissue kit” (5 Prime, Inc., Gaithersburg, Md.). RNA estimation was performed using “Quant-iT RNA Assay Kit” using a Qubit fluorometer according to the manufacturer's protocol (Invitrogen, Carlsbad, Calif.). cDNA was synthesized by reverse transcribing 1 μg of extracted RNA using an “iScript cDNA synthesis kit” (BioRad, Hercules, Calif.). The oligomeric primers (Sigma, St Louis, Mo.) used to amplify the TH mRNA and α-synuclein mRNA are enumerated in Table 1. The cDNA amplification was performed using an iQ SYBR Green Supermix kit following the manufacturer's instructions (BioRad, Hercules, Calif.). The amplification was performed using an iCycler iQ Multicolor Real Time PCR Detection System (BioRad, Hercules, Calif.). The expression of specific TH and α-synuclein transcripts amplified were normalized to the expression of glyceraldehyde-3-phosphate dehydrogenase (GAPDH).

[7] = system: TNF-α; assay: TNF-α levels in ARPE-19 cells; type: cell-based; conditions: ARPE-19, 24 h, co-treatment with 27-OHC, all at 10 μM
[8] = system: ERα/β; assay: EMSA, binding of nuclear ER to probe for the ERE half site in the TH promoter; type: cell-based, human
[9] = system: TH promoter; assay: Dual-luciferase TH promoter assay; type: cell-based, human
Protocol: Constructs encoding ERE and TH promoter conjugated to the firefly luciferase gene were used in the study. Human neuroblastoma SH-SY5Y cells were plated in 96-well plates at a density of 2×10^4 cells/well. The cells were transfected when 80% confluent with 0.25 μg of either ERE-firefly Luciferase reporter construct, LXRE-firefly Luciferase reporter construct, or TH promotor-firefly Luciferase promoter construct. Respective non-inducible reporter constructs containing constitutively expressing Renilla luciferase were used as negative internal controls. Constitutively expressing GFP constructs were used as positive control to determine transfection efficiency. Cells were incubated for 24 hours with Opti-MEM serum free medium (Invitrogen, Carlsbad, Calif.) containing the reporter constructs dissolved in transfection reagent. After 24 hours the medium was changed and the cells were incubated in normal DMEM/F12 medium containing 10% FBS and cells were treated with the different treatment regimens. The cells were treated in triplicate and harvested 24 hours later and subjected to dual-luciferases assay. The dual-luciferase assay was performed using a “Dual-Luciferase Reporter Assay System” from Promega (Madison, Wis.). The luminescence recorded is expressed as Relative Luminescence Units (RLU) and normalized to per mg protein. Unit value was assigned to control and the magnitude of differences among the samples is expressed relative to the unit value of control cells.

[10] = system: TH; assay: Western blot of TH protein levels in SH-SY5Y neuroblastoma cells; type: cell-based, human; conditions: 24 h
Protocol: as §1, §2, §3, §4

[11] = system: ARPE-19 cells; assay: ROS levels in ARPE-19 cells; type: cell-based; conditions: ARPE-19, 24 h, co-treatment with 27-OHC, all at 10 μM

T1 sequence (Q92731 whole entry): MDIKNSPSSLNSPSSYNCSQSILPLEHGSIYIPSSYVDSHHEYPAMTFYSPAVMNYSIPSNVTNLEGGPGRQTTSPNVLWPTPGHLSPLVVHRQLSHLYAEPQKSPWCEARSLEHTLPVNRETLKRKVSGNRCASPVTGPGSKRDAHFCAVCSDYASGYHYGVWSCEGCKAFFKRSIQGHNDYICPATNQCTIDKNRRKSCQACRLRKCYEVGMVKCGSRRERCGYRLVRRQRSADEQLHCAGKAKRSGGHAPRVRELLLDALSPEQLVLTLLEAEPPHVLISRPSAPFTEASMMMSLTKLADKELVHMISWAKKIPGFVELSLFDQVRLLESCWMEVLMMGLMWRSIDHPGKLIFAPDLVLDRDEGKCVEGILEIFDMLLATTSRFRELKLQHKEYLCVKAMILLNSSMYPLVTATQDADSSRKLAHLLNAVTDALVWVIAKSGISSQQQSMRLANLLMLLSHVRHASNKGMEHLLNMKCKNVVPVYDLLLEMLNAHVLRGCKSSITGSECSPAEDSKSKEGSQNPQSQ

Structure (SMILES): CC(C)C(O)CC[C@@H](C)[C@H]1CC[C@H]2[C@@H]3CC=C4C[C@@H](O)CC[C@]4(C)[C@H]3CC[C@]12C (some centres unmarked) [24-OHC, 24-hydroxycholesterol]
27-OHC-induced effects on TH [1]: reverse
27-OHC-induced effects on α-synuclein [1]: reverse

Structure (SMILES): C[C@]12CC[C@@H]3c4ccc(O)cc4C[C@@H](CCCCCCCCC[S+]([O-])CCCC(F)(F)C(F)(F)F)[C@H]3[C@@H]1CC[C@@H]2O (some centres unmarked) [ICI 182780, Fulvestrant]
basal α-synuclein expression levels [2]: no effect

Structure (SMILES): CCC1=C(C)c2cc3[n-]c(cc4[n-]c(cc5nc(cc1n2)C(C)=C5CC)c(C)c4CCC(=O)O)c(CCC(=O)O)c3C.[Cl-].[Cl-].[Sn+4] [SnMP, Tin-mesoporphyrin IX]
protection against experimental intracerebral hemorrhage [3]: protect
blood brain barrier passage [4]: crosses

27-OHC-induced attenuation in the nuclear translocation of ERβ ([5]; concomitant with 10 μM 27-OHC): completely reduced
nuclear translocation / nuclear levels of ERβ ([5]; treatment alone vs control): increases
binding of nuclear ER to the DNA probe corresponding to the ERE-half site on the TH promoter [8]: significantly increases
inhibitory effects of 27-OHC on binding of ER to the exogenous DNA probe [8]: completely reverses
27-OHC-induced reduction of TH promoter activity ([9]; concomitant with 27-OHC): completely reversed
Structure (SMILES): C[C@]12CC[C@@H]3c4ccc(O)cc4CC[C@H]3[C@@H]1CC[C@@H]2O [estradiol, 17β-estradiol]
effect of ECHS on 27-OHC-induced increase in α-synuclein expression ([2]; estradiol added to 27-OHC+ECHS): does not alter
α-synuclein expression ([2]; in combination with ECHS): no effect
basal α-synuclein expression levels [2]: no effect
27-OHC-induced attenuation of TH mRNA ([6]; concomitant with 10 μM 27-OHC): completely reversed
TH mRNA ([6]; treatment alone vs control): increase
27-OHC-induced increase in TNF-α levels [7]: reduced
increase in basal TH promoter activity ([9]; SH-SY5Y transfected with TH promoter-luciferase, 24 h): 2.5 fold
TH protein levels ([10]; concomitant with 10 μM 27-OHC, compared to control or 27-OHC): significant increase
TH protein levels / TH expression ([10]; treatment alone vs control (10 μM 27-OHC, 1 nM estradiol, 10 μM GW3965, 10 μM ECHS)): profound increase
27-OHC-induced increase in ROS levels [11]: not
